Tests used:
[1] = test system: patients suffering from acne; assay: Multi-centre, randomized, double-blind clinical study of adapalene + BPO topical gel versus monads and vehicle; type: in vivo; conditions: adapalene 0.1%, BPO 2.5%; for Reduction in lesions (all lesions): 12 weeks, gels once a day, rounded values of the text; for Degree of success (percentage of patients clear or almost clear): week 12, ITT (LOCF), gels once a day for 12 weeks
Description: A clinical study for confirmation of efficacy was performed for a topical gel combining adapalene+benzoyl peroxide (BPO). This gel has the following formulation (expressed as % weight/total weight): [table] Protocol: The clinical study was a multi-centre, randomized, double-blind study in parallel groups, to evaluate the tolerance and the efficacy of the above formulation, in comparison with its own individual active substances placed at the same doses in gels of the same formula as that of the fixed combination (individual formulae referred to as “monads”) and in comparison with the gel vehicle (placebo formula): adapalene gel (0.1%), BPO gel (2.5%) and vehicle gel. All the treatments were applied once a day for 12 weeks, to 517 patients suffering from acne. The main efficacy criteria were: the degree of success, defined as the percentage of patients considered as being “clear”, i.e., the patient has no more acne lesions (neither comedones nor inflammatory lesions), reflecting an improvement in the patient's clinical condition, or “almost clear” on the evaluation scale; the reduction of the percentage of inflammatory and non-inflammatory lesions after 12 weeks of treatment.

[2] = test system: TPA-induced ear edema; assay: Anti-inflammatory evaluation in TPA-induced ear edema model; type: in vivo, Balb/c mice; conditions: single topical application, T+6 hours
Description: Evaluation of the Anti-Inflammatory in Ear Edema Model on Balb/c Mice
The study was carried out with […] ([…]) female 9 weeks aged Balb/c ByJlc mice.
The Edema was induced by a single application of 20 μl of TPA dissolved in acetone at 0.01%.
The treatment was administrated by single topical application of tested compounds dissolved in TPA at 0.01% (groups 3, 4, 5, 6 and 7) and dissolved in TPA 0.01%+BPO (groups 8, 9 and 10).
The treatments activity was measured by inflammation evaluation with ear thickness at T+6 hours.

| SMILES | Reduction in lesions (all lesions) [1] | Degree of success (percentage of patients clear or almost clear) [1] | Anti-inflammatory effect on TPA-induced ear edema (in words) [2] |
| --- | --- | --- | --- |
| O=C(OOC(=O)c1ccccc1)c1ccccc1 [BPO, benzoyl peroxide] | 36% | 15% | slight anti-inflammatory effect |
| COc1ccc(-c2ccc3cc(C(=O)O)ccc3c2)cc1C12CC3CC(CC(C3)C1)C2 [Adapalene, 6-[3-(1-Adamantyl)-4-methoxyphenyl]-2-naphthoic acid] | 35% | 16% | low anti-inflammatory effect |

— patent US20120115947A1, “COMBINATION/ASSOCIATION OF ADAPALENE AND BENZOYL PEROXIDE FOR TREATING ACNE LESIONS” (Galderma Research & Development, priority 2006, published 2012)
